From patent US4481203A, “Composition containing 1-(n-hexylcarbamoyl)-5-fluorouracil and uracil” (priority 1977, dated 1984)
Like-named read-outs stand apart in the source and are kept apart here.

Experiments:
sarcoma 180 [1] = experiment: Therapeutic effect on sarcoma 180 transplanted in mice (Table 5); type: in vivo, male mice of ICR strain; conditions: oral, 14400 min
Description: (§1) (5) The anti-cancer compositions of this invention are tested in mice by the following methods to determine acute toxicity, therapeutic effect and theapeutic index.
Tissues of sarcoma 180, 2×10^6, are subcutaneously transplanted in the back of male mice of ICR strain (6 mice in each group). […] Twenty-four hours after the transplantation and during the following seven consecutive days the suspension is orally given to the animal once every day.

AH-130 [2] = experiment: Anti-cancer effect (T/C) on subcutaneously transplanted AH-130, oral administration (Table 2); type: in vivo, male Donryu rats
From the text: (2) Determination of effects
(§2) Ascites cells (5×10^6) of AH-130, are subcutaneously transplanted in the armpit of male Donryu rats weighing about 200 g (ten rats in each group). […] Twenty-four hours after the transplantation and during the following seven consecutive days the suspension is orally given to the animal once every day at the dose listed in Table 2. On the 10th day after the transplantation, the tumor is removed from the body and weighed to calculate the average weight (T) of the tumors in the group to which the composition has been given and the corresponding weight (C) in the control group to determine the ratio T/C.

sarcoma 180 [3] = experiment: Therapeutic index (LD50/ED50) in mice (Table 5); type: in vivo, male mice of ICR strain; conditions: oral
From the text: The LD50 and ED50 values obtained above are used to determine the therapeutic index (LD50 /ED50).

in vivo = type: in vivo; conditions: mouse, in vivo, po, mice
Description: as §1
Male mice of ICR strain weighing 22±1 g are used, 5 mice in each group. […] Over the following period of three weeks the mice are checked every day for poisoning, body weight and mortality. The LD50 is determined according to the up-and-down method 3 weeks after the administration.

AH-130 [4] = experiment: Effects of Preparations 1 to 8 on AH-130 (Table 4); type: in vivo, male Donryu rats
From the text: as §2
(4) Compositions formulated according to Preparations 1 to 8 given above are tested by the foregoing method for effects on AH-130.

[5] = uracil (b)/(a) mol ratio 0, as amount of 5-fluorouracil (a)
[6] = uracil (b)/(a) mol ratio 2.5, as amount of 5-fluorouracil (a)
[7] = uracil (b)/(a) mol ratio 10, as amount of 5-fluorouracil (a)
[8] = Rattus norvegicus, po, 240 h; read-out: Anti-cancer effect (T/C)
[9] = oral, 5-fluorouracil (a) 0.5 m.mol/kg + uracil 0.5 m.mol/kg
[10] = oral, 5-fluorouracil (a) 0.5 m.mol/kg + uracil 0.1 m.mol/kg
[11] = oral, 5-fluorouracil (a) 0.5 m.mol/kg + uracil 0.2 m.mol/kg
[12] = oral, 5-fluorouracil (a) 0.5 m.mol/kg + uracil 1 m.mol/kg
[13] = Rattus norvegicus, po, 240 h, read-out: Anti-cancer effect (T/C)

Row | SMILES | ED50 (sarcoma 180 [1]; [5]) [mg/kg] | ED50 (sarcoma 180 [1]; [6]) [mg/kg] | ED50 (sarcoma 180 [1]; [7]) [mg/kg] | response vs control in vivo at 500 µmol/kg (AH-130 [2]; [8]) [%] | Anti-cancer effect (T/C) (AH-130 [2]; [9]) | Therapeutic index (LD50/ED50) (sarcoma 180 [3]; uracil (b)/(a) mol ratio 0) | Therapeutic index (LD50/ED50) (sarcoma 180 [3]; uracil (b)/(a) mol ratio 2.5) | Therapeutic index (LD50/ED50) (sarcoma 180 [3]; uracil (b)/(a) mol ratio 10) | LD50 at 504 h (in vivo; [5]) [mg/kg] | LD50 at 504 h (in vivo; [6]) [mg/kg] | LD50 at 504 h (in vivo; [7]) [mg/kg] | Anti-cancer effect (T/C) (AH-130 [2]; [11]) | Anti-cancer effect (T/C) (AH-130 [2]; [12]) | other results
1 | CCCC(=O)n1cc(F)c(=O)[nH]c1=O [Compound 10, 1-(n-Butyryl)-5-fluorouracil] | 111 | 37 | 28 | 38 | 0.11 | – | – | – | – | – | – | – | – | –
2 | O=c1[nH]cc(F)c(=O)n1C1CCCO1 (stereo not shown) [Compound 7, 3-(2-Tetrahydrofuryl)-5-fluorouracil] | 78 | 29 | 16 | 20 | 0.06 | 13.1 | 23.7 | 23.8 | 1020 | 687 | 381 | – | – | Anti-cancer effect (T/C) (AH-130 [2]; [10]): 0.12
3 | CCOCn1cc(F)c(=O)[nH]c1=O [Compound 5, 1-Ethoxymethyl-5-fluorouracil] | – | 26 | 13 | 68 | 0.19 | – | – | – | 1000 | 446 | 191 | 0.33 | 0.08 | Anti-cancer effect (control) (T/C) (AH-130 [4]; oral, Compd. 5 100 mg/kg, formulated as Preparation 5 but no uracil): 0.72
4 | CCOC(=O)n1cc(F)c(=O)[nH]c1=O [Compound 9, 1-Ethoxycarbonyl-5-fluorouracil] | 101 | 39 | 28 | – | 0.06 | 3.3 | 6.9 | 6.4 | 332 | 269 | 179 | – | – | response vs control in vivo at 500 µmol/kg (AH-130 [2]; [13]): 22%
5 | CCCCCCNC(=O)n1cc(F)c(=O)[nH]c1=O [Compound 4, 1-(n-Hexylcarbamoyl)-5-fluorouracil] | 60 | 24 | 20 | – | 0.15 | 21.0 | 40.8 | 32.2 | 1260 | 980 | 644 | 0.21 | 0.12 | Anti-cancer effect (control) (T/C) (AH-130 [4]; oral, Compd. 4 50 mg/kg, formulated as Preparation 3 but no uracil): 0.45; response vs control in vivo at 500 µmol/kg (AH-130 [2]; [13]): 39%
6 | O=c1[nH]c(=O)n(C2CCCO2)cc1F (stereo not shown) [Compound 2, 1-(2-Tetrahydrofuryl)-5-fluorouracil, reference compound] | 140 | 20 | 11 | 65 | 0.17 | – | – | – | – | – | – | 0.23 | 0.06 | Anti-cancer effect (control) (T/C) (AH-130 [4]; I.v., Compd. 2 100 mg/kg, formulated as Preparation 7 but no uracil): 0.61; Anti-cancer effect (control) (T/C) (AH-130 [4]; oral, Compd. 2 100 mg/kg, formulated as Preparation 1 but no uracil): 0.68; Anti-cancer effect (control) (T/C) (AH-130 [4]; via anus, Compd. 2 100 mg/kg, formulated as Preparation 8 but no uracil): 0.51; Anti-cancer effect (T/C) (AH-130 [2]; oral, 5-fluorouracil (a) 0.5 m.mol/kg + uracil 0.05 m.mol/kg): 0.49; Anti-cancer effect (T/C) (AH-130 [2]; [10]): 0.30
7 | CCCCn1cc(F)c(=O)[nH]c1=O [Compound 11, 1-(n-Butyl)-5-fluorouracil] | 186 | 88 | 49 | 77 | 0.53 | 4.7 | 8.2 | 7.3 | 867 | 723 | 358 | – | – | –
8 | O=c1cc[nH]c(=O)[nH]1 [uracil (b), uracil] | – | – | – | – | – | – | – | – | – | – | – | – | – | effect (T/C) (AH-130 [2]; oral, uracil (b) alone 1 m.mol/kg): 0.96; anti-cancer effect of uracil itself (AH-130 [2]; uracil (b) itself): no anti-cancer effect whatever
9 | O=c1[nH]c(=O)n(S(=O)(=O)c2ccccc2)cc1F [Compound 8, 1-Benzenesulfonyl-5-fluorouracil] | 234 | 88 | 48 | 48 | 0.21 | – | – | – | 1170 | 973 | 427 | – | – | Anti-cancer effect (T/C) (AH-130 [2]; [10]): 0.39
10 | Fc1cnc(OCc2ccccc2)nc1OCc1ccccc1 [Compound 12, 2,4-Dibenzyl-5-fluorouracil] | 362 | 224 | 163 | 55 | 0.41 | – | – | – | – | – | – | – | – | –
11 | O=c1c(F)cn(C2CCCO2)c(=O)n1C1CCCO1 (stereo not shown) [Compound 3, 1,3-bis(2-Tetrahydrofuryl)-5-fluorouracil] | 118 | 63 | 27 | 24 | 0.12 | 18.8 | 30.1 | 42.9 | 2220 | 1890 | 1160 | 0.18 | 0.08 | Anti-cancer effect (control) (T/C) (AH-130 [4]; oral, Compd. 3 120 mg/kg, formulated as Preparation 2 but no uracil): 0.25; Anti-cancer effect (control) (T/C) (AH-130 [4]; oral, Compd. 3 120 mg/kg, formulated as Preparation 4 but no uracil): 0.25
